Biological target: T1, NS5B from the BK strain (genotype 1b) (Hepatitis C virus genotype 1b, UniProt P26663)
T1 construct: NS5B from the BK strain (genotype 1b) is expressed in E. coli as a protein in which the 21 C-terminal amino acids are replaced; made in house; host or cells: E. coli
Test: Hepatitis C polymerase inhibition, NS5B BK strain, 33P-GTP filter assay
Assay type: biochemical
Settings: Table 1A; for inhibition at 20 µM: 20 μM compound, read-out: HCV pol % inh at 20 μM; for IC50: NS5B BK strain, read-out: HCV pol BK IC50
Source text: The ability of the compounds of the present invention to inhibit Hepatitis C Polymerase was established by the following experimental procedure: • NS5B from the BK strain (genotype 1b) is expressed in E. coli as a protein in which the 21 C-terminal amino acids are replaced with a short linker and a hexahistidine tag ([…]). The purified protein is mixed with radioactive nucleotides and allowed to replicate a heteropolymeric RNA substrate, primed by an endogenous short hairpin, resulting in an approximately 760 nt product. The radioactive product is captured on a filter and quantitated after removal of the unincorporated nucleotides.
Reagents: • 10 mM uridine 5′-triphosphate (UTP) (Promega # p116B) • 10 mM adenine 5′-triphosphate (ATP) (Promega # p113B) • 10 mM cytidine 5′-triphosphate (CTP) (Promega # p114B) • 10 mM guanine 5′-triphosphate (GTP) (Promega # p115B) • Bovine Serum Albumin (BSA) 10 mg/ml NEB (100× at 10 mg/ml) #007-BSA • RNasein (Promega #N251X) 40 U/μl • A-[33P]-GTP (NEN-easytides NEG/606H 3000 Ci/mmol, 370 MBq/ml, 10 mCi/ml) • Falcon polypropylene 96 well plates (Becton Dickinson # 351190) • Millipore Multiscreen assasy system-96 well-filtration plate #MADE NOB 50 • Optiphase Supermix (Wallac) formulated by Fisher • Millipore Multiscreen liner for use in microbeta 1450-106 casette [(Wallac) Perkin Elmer #1450-433] • 1 M(N-[2-hydroxyethyl]piperazine-N′-[2-ethanesulfonic acid]) (HEPES), pH 7.3 • Amersham Pharmacia Biotec (US16924-500 ml) • 1 M MgCl2 (SIGMA #M1028) • Dithiothreitol (DTT) (solid) (SIGMA #D9779) • RNase free water (GIBCO-BRL #10977-023) • Dimethyl sulfoxide (Aldrich #27685-5) • Basilen Blue (Sigma, B5520) • 0.5M ethylenediaminetetraacetic acid (EDTA), pH 8 (GIBCO-BRL #15575-020) • Dibasic sodium phosphate (7-hydrate) (Na2HPO4.7H2O; Baker#3824-07) • Phosphoric acid (Baker, #0262.02)
Further reagent preparation: • 0.5 M Na Phosphate buffer. Per liter, weigh 134 gr Na2HPO4.7H2O, add water to 900 ml. Adjust pH to 7.0 with phosphoric acid. Top off with water to 1 L. • Dilute nucleotides 1:1000 to 10 μM (GTP and CTP) or 1:100 to 100 μM (ATP and UTP) into RNase free water.
Procedure: • (1) Compounds 10 μl at 10 μg/ml in 15% dimethylsulfoxide (DMSO)
When starting from 100 μg/ml compound stock in […]: • Dispense 5 μl 30% DMSO per well • Dispense 5 μl compound (100 μg/ml) per well.
When starting from 50 μg/ml compound stock in 15% DMSO: • Add 10 μl compound per well. • (2) Enzyme Mix:
Add 20 μl enzyme mix into each well of the assay plate. Incubate compound and enzyme at room temperature for 15 minutes • (3) Template mix—prepare ahead
Spin down a tube of RNA (5 μg/tube stored in 75% ethanol and 0.3 M sodium acetate) in a microcentrifuge for 20 minutes at 4° C. One tube is enough for 1–1.5 plates. Remove as much ethanol from the tube as possible by inverting the tube. Be gentle, pellet RNA may not adhere to the tube. Vacuum dry the RNA. Resuspend the RNA by adding 1 ml of DEPC water, close the cap of the tube tightly. To dissolve RNA, incubate RNA solution on ice for ˜60 minutes and gently vortex. Spin briefly to ensure all RNA solution is down to the bottom of the tube before opening cap. Gently transfer RNA solution into a 5 ml or larger tube. Add another 3 ml of DEPC water (total 4 ml of volume).
Add the following volumes of reagents
Add 20 μl template mix per reaction (i.e. 20 ng of pOF per reaction or ˜3 nM) • (4) Incubate reaction at room temperature (22–25° C.) for 2 hours. • (5) Stop reaction by adding 50 μl of 170 mM EDTA. • Final concentration of EDTA is 85 mM. • (6) Prewet filters of Millipore multiscreen assay plate by adding 200 μl of 0.5 M sodium phosphate buffer, pH 7.0 into each well. Let stand at room temperature for 2–3 minutes. • (7) Place the multiscreen filter plate onto a Millipore Manifold and turn on vacuum to allow buffer to flow through. Turn off vacuum. Transfer 80 μl of the reaction product into each well of the filter plate. Let stand for 2–3 minutes. […]

T1 sequence (P26663 2420-2989): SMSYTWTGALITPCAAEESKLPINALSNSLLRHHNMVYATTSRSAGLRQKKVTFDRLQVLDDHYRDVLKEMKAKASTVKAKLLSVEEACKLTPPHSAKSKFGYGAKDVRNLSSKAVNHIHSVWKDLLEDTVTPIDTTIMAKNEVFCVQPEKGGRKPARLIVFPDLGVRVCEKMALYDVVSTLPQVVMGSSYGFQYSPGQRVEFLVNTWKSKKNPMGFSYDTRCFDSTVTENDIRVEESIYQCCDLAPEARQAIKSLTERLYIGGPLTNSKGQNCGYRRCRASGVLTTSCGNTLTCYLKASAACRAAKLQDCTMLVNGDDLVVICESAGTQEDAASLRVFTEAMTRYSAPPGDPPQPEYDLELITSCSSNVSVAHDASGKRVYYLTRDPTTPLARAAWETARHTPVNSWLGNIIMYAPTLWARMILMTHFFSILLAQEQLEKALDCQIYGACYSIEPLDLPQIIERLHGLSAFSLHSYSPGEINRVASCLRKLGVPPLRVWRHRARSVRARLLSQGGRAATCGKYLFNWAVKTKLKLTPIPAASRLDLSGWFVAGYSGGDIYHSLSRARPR

| SMILES | inhibition at 20 µM [%] | IC50 [µM] |
| --- | --- | --- |
| CCCC1(CC(=O)O)OCCc2c1[nH]c1c(-c3ccc(Cl)cc3)cccc21 (stereo not shown) [Example 92, [8-(4-chlorophenyl)-1-propyl-1,3,4,9-tetrahydropyrano[3,4-b]indol-1-yl]acetic acid] | 35 | > 20 |
| N#Cc1c(F)cc(F)c2[nH]c3c(c12)CCOC3(CC(=O)O)c1ccoc1 (stereo not shown) [Example 197, [5-cyano-6,8-difluoro-1-(3-furyl)-1,3,4,9-tetrahydropyrano[3,4-b]indol-1-yl]acetic acid] | 55 | > 5 |
| O=C(O)CC1(c2ccoc2)OCCc2c1[nH]c1c(Cl)cccc21 (stereo not shown) [Example 79, [8-chloro-1-(3-furyl)-1,3,4,9-tetrahydropyrano[3,4-b]indol-1-yl]acetic acid] | 40 | > 20 |
| C/C=C/CCC1(CC(=O)O)OCCc2c1[nH]c1c(Cl)cc(C)c(Br)c21 (stereo not shown) [Example 178, {5-bromo-8-chloro-6-methyl-1-[(3E)-pent-3-enyl]-1,3,4,9-tetrahydropyrano[3,4-b]indol-1-yl}acetic acid] | < 32 | > 5 |
| CCC1(CC(=O)O)OCCc2c1[nH]c1c(Cl)cc(Cl)c(Cl)c21 (stereo not shown) [Example 155, (5,6,8-trichloro-1-ethyl-1,3,4,9-tetrahydropyrano[3,4-b]indol-1-yl)acetic acid] | 84 | 0.47 |
| C/C=C/CCC1(CC(=O)O)OCCc2c1[nH]c1c(Cl)ccc(C(F)(F)F)c21 (stereo not shown) [Example 134, [8-chloro-1-[(3E)-pent-3-enyl]-5-(trifluoromethyl)-1,3,4,9-tetrahydropyrano[3,4-b]indol-1-yl]acetic acid] | 28 | > 20 |
| C=CCn1c2c(c3c(Cl)ccc(Cl)c31)CCOC2(CCC)CC(=O)O (stereo not shown) [Example 233, (9-allyl-5,8-dichloro-1-propyl-1,3,4,9-tetrahydropyrano[3,4-b]indol-1-yl)acetic acid] | – | > 20 |
| CCCC1(CC(=O)O)OCCc2c1[nH]c1c(C)ccc(C(N)=O)c21 (stereo not shown) [Example 226, (5-carbamoyl-8-Methyl-1-propyl-1,3,4,9-tetrahydropyrano[3,4-b]indol-1-yl)acetic acid] | – | > 20 |
| CC(C)C1(CC(=O)O)OCCc2c1[nH]c1c(Br)cccc21 (stereo not shown) [Example 83, (8-bromo-1-isopropyl-1,3,4,9-tetrahydropyrano[3,4-b]indol-1-yl)acetic acid] | 41 | > 20 |
| Cc1cc(F)c(Br)c2c3c([nH]c12)C(CC(=O)O)(c1ccc(C(=O)O)cc1)OCC3 (stereo not shown) [Example 204, 4-[5-bromo-1-(carboxymethyl)-6-fluoro-8-methyl-1,3,4,9-tetrahydropyrano[3,4-b]indol-1-yl]benzoic acid] | 87 | 1.2 |
| CCCC1(CC(=O)O)OCCc2c1[nH]c1cccc(-c3cccc(OC)c3)c21 (stereo not shown) [Example 47, [5-(3-methoxyphenyl)-1-propyl-1,3,4,9-tetrahydropyrano[3,4-b]indol-1-yl]acetic acid] | 15 | > 20 |
| Cc1cc(F)c2[nH]c3c(c2c1Br)CCOC3(CC(=O)O)c1ccccc1 (stereo not shown) [Example 168, (5-bromo-8-fluoro-6-methyl-1-phenyl-1,3,4,9-tetrahydropyrano[3,4-b]indol-1-yl)acetic acid] | 4 | > 10 |
| Cc1cc(Cl)c2[nH]c3c(c2c1C#N)CCOC3(CC(=O)O)C(C)C (stereo not shown) [Example 184, (8-chloro-5-cyano-1-isopropyl-6-methyl-1,3,4,9-tetrahydropyrano[3,4-b]indol-1-yl)acetic acid] | 39 | > 5 |
| CCC1(CC(=O)O)OCCc2c1[nH]c1cccc(Br)c21 (stereo not shown) [Example 21, (5-bromo-1-ethyl-1,3,4,9-tetrahydro-pyrano[3,4-b]indol-1-yl)acetic acid] | 58 | > 20 |
| CCCCC1(CC(=O)O)OCCc2c1[nH]c1c(F)cc(F)c(Br)c21 (stereo not shown) [Example 191, (5-bromo-1-butyl-6,8-difluoro-1,3,4,9-tetrahydropyrano[3,4-b]indol-1-yl)acetic acid] | 93 | 0.4 |
